In patent US20230143612A1 (Arbutus Biopharma Corporation, priority 2020, published 2023):

The compounds below were run against PD-L1 His protein / PD-1 Fc protein (Homo sapiens, UniProt Q9NZQ7) (assay: HTRF Assay (PD-1/PD-L1 interaction)). Details: PD-L1 His 6 nM, PD-1 Fc 6 nM.
PD-L1 His protein / PD-1 Fc protein, sequence (Q9NZQ7 19-238 limits assumed): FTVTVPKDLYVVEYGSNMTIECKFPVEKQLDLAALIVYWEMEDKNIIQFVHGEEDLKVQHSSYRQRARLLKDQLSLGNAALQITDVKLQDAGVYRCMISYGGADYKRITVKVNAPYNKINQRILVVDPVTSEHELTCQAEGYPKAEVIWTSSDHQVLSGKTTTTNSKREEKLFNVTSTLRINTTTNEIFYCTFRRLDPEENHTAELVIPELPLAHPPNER
Type: binding
Summary of the method: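 HTRF: PD-L1 His (6 nM final), compound (3-fold dilutions, 20 μM to 0.001 μM final) and PD-1 Fc (6 nM final) preincubated 15 min at room temperature. Anti-human IgG-XL665 and anti-6HIS Tb cryptate (mixed at 6.7 nM and 0.35 nM) then added for 1 h at room temperature before reading.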
`COc1nc(-c2cccc(-c3cccc(-c4ccn5c(=O)c(CN6CCCC6CO)cnc5c4)c3Cl)c2Cl)ccc1CNC[C@@H]1CCC(=O)N1` (stereo partly drawn) [Example 153, 8-(2,2′-Dichloro-3′-(6-methoxy-5-(((((S)-5-oxopyrrolidin-2-yl)methyl)amino)methyl)pyridin-2-yl)-[1,1′-biphenyl]-3-yl)-3-((2-(hydroxymethyl)pyrrolidin-1-yl)methyl)-4H-pyrido[1,2-a]pyrimidin-4-one] gave an IC50 of 0.8 nM. Work on `COc1nc(-c2cccc(-c3cccc(-c4cn5cc(CNCCO)ccc5n4)c3Cl)c2Cl)ccc1CNCCO` [Example 100, 2-(((2-(2,2′-Dichloro-3′-(5-(((2-hydroxyethyl)amino)methyl)-6-methoxypyridin-2-yl)-[1,1′-biphenyl]-3-yl)imidazo[1,2-a]pyridin-6-yl)methyl)amino)ethan-1-ol] yielded an IC50 of 4.3 nM. With `COC(=O)[C@H]1CCN(Cc2cnc3cc(-c4cccc(-c5cccc(-c6ccc(CNC[C@@H]7CCC(=O)N7)c(OC)n6)c5Cl)c4Cl)cc(C)n3c2=O)C1` [Example 295, (S)-Methyl 1-((8-(2,2′-dichloro-3′-(6-methoxy-5-(((((S)-5-oxopyrrolidin-2-yl)methyl)amino)methyl)pyridin-2-yl)-[1,1′-biphenyl]-3-yl)-6-methyl-4-oxo-4H-pyrido[1,2-a]pyrimidin-3-yl)methyl)pyrrolidine-3-carboxylate] the IC50 was 0.1 nM. `COc1nc(-c2cccc(-c3cccc(-c4ccn5c(=O)c(CNCC6(C)CCC(=O)N6)cnc5c4)c3Cl)c2Cl)ccc1CNC[C@@H]1CCC(=O)N1` (stereo partly drawn) [Example 368, 8-(2,2′-dichloro-3′-(6-methoxy-5-(((((S)-5-oxopyrrolidin-2-yl)-methyl)-amino)-methyl)-pyridin-2-yl)-[1,1′-biphenyl]-3-yl)-3-((((2-methyl-5-oxopyrrolidin-2-yl)methyl)-amino)-methyl)-4H-pyrido[1,2-a]pyrimidin-4-one] showed an IC50 of 1 nM. Work on `COC(=O)C[C@H](O)CNCc1cnc2cc(-c3cccc(-c4cccc(-c5cc(F)c(CNC[C@@H]6CCC(=O)N6)c(OC)n5)c4Cl)c3Cl)ccn2c1=O` [Example 271, Methyl (3S)-4-[[8-[2-chloro-3-[2-chloro-3-[4-fluoro-6-methoxy-5-[[[(2S)-5-oxopyrrolidin-2-yl]methylamino]methyl]-2-pyridyl]phenyl]phenyl]-4-oxo-pyrido[1,2-a]pyrimidin-3-yl]methylamino]-3-hydroxy-butanoate] yielded an IC50 of 0.1 nM. In the case of `COc1nc(-c2cccc(-c3cccc(-c4ccc5nn(CCCN(CC(C)C)CC(C)C)c(=O)n5c4)c3Cl)c2Cl)ccc1CNC[C@@H]1CCC(=O)N1` [Example 392, (S)-6-(2,2′-Dichloro-3′-(6-methoxy-5-((((5-oxopyrrolidin-2-yl)methyl)-amino)-methyl)pyridin-2-yl)-[1,1′-biphenyl]-3-yl)-2-(3-(diisobutylamino)propyl)-[1,2,4]triazolo[4,3-a]pyridin-3(2H)-one], the IC50 is reported as 6.7 nM. For `COc1nc(-c2cccc(-c3cccc(-c4ccn5c(=O)c(CN6CC7(C(=O)O)CCC6CC7)cnc5c4)c3Cl)c2Cl)ccc1CNC[C@@H]1CCC(=O)N1` [Example 127, (S)-2-((8-(2,2′-Dichloro-3′-(6-methoxy-5-((((5-oxopyrrolidin-2-yl)methyl)amino)methyl)pyridin-2-yl)-[1,1′-biphenyl]-3-yl)-4-oxo-4H-pyrido[1,2-a]pyrimidin-3-yl)methyl)-2-azabicyclo[2.2.2]octane-4-carboxylic acid], the IC50 was 0.3 nM. Work on `COc1nc(-c2cccc(-c3cccc(-c4ccc5[nH]c(CNC[C@@H]6CCC(=O)N6)c(Cl)c5n4)c3Cl)c2Cl)ccc1CNC[C@@H]1CCC(=O)N1` [Example 385, (S)-5-((((3-Chloro-5-(2,2′-dichloro-3′-(6-methoxy-5-(((((S)-5-oxopyrrolidin-2-yl)methyl)-amino)methyl)-pyridin-2-yl)-[1,1′-biphenyl]-3-yl)-1H-pyrrolo[3,2-b]-pyridin-2-yl)methyl)-amino)methyl)-pyrrolidin-2-one] yielded an IC50 of 13 nM. `COc1nc(-c2cccc(-c3cccc(-c4cnc5c(c4)CCCC5NC[C@@H]4CCC(=O)N4)c3Cl)c2Cl)ccc1CNC[C@@H]1CCC(=O)N1` (stereo partly drawn) [Example 432, (5S)-5-(((3-(2,2′-Dichloro-3′-(6-methoxy-5-(((((S)-5-oxopyrrolidin-2-yl)-methyl)-amino)methyl)-pyridin-2-yl)-[1,1′-biphenyl]-3-yl)-5,6,7,8-tetrahydroquinolin-8-yl)amino)-methyl)-pyrrolidin-2-one] gave an IC50 of 270 nM. Work on `COc1nc(-c2cccc(-c3cccc(-c4ccn5c(=O)c(CNC[C@H](C)O)c(C)nc5c4)c3Cl)c2Cl)ccc1CNC[C@@H]1CCC(=O)N1` [Example 193, 8-(2,2′-Dichloro-3′-(6-methoxy-5-(((((S)-5-oxopyrrolidin-2-yl)methyl)amino)methyl)pyridin-2-yl)-[1,1′-biphenyl]-3-yl)-3-((((S)-2-hydroxypropyl)amino)methyl)-2-methyl-4H-pyrido[1,2-a]pyrimidin-4-one] yielded an IC50 of 0.1 nM. `COc1nc(-c2cccc(-c3cccc(-c4ccc5c(CNC[C@@H]6CCO6)cn(C)c5n4)c3Cl)c2Cl)ccc1CNC[C@@H]1CCC(=O)N1` [Example 413, (5S)-5-[[[6-[2-Chloro-3-[2-chloro-3-[1-methyl-3-[[[(2S)-oxetan-2-yl]methylamino]methyl]pyrrolo[2,3-b]pyridin-6-yl]phenyl]phenyl]-2-methoxy-3-pyridyl]methylamino]methyl]pyrrolidin-2-one] gave an IC50 of 190 nM. `Cc1c(-c2ccn3c(=O)c(CNC[C@@H]4CCC(=O)N4)cnc3c2)cccc1-c1cccc(-c2ccc(CNC[C@@H]3CCC(=O)N3)c(Cl)n2)c1Cl` [Example 50, 8-(2′-Chloro-3′-(6-chloro-5-(((((S)-5-oxopyrrolidin-2-yl)methyl)amino)methyl)pyridin-2-yl)-2-methyl-[1,1′-biphenyl]-3-yl)-3-(((((S)-5-oxopyrrolidin-2-yl)methyl)amino)methyl)-4H-pyrido[1,2-a]pyrimidin-4-one] showed an IC50 of 8.1 nM. `Cn1cc(CNC[C@@H]2CCC(=O)N2)c2ccc(-c3cccc(-c4cccc(-c5ccn6c(=O)c(CNC[C@@H]7CCC(=O)N7)cnc6c5)c4Cl)c3Cl)cc21` [Example 453, 8-[2-Chloro-3-[2-chloro-3-[1-methyl-3-[[[(2S)-5-oxopyrrolidin-2-yl]methylamino]methyl]indol-6-yl]phenyl]phenyl]-3-[[[(2S)-5-oxopyrrolidin-2-yl]methylamino]methyl]pyrido[1,2-a]pyrimidin-4-one] was tested, and the IC50 was 1200 nM. Work on `COc1nc(CC2CCc3c(-c4cccc(-c5ccn6c(=O)c(CNC[C@@H]7CCC(=O)N7)cnc6c5)c4Cl)cccc32)c(Cl)cc1CNC[C@@H]1CCC(=O)N1` (mixture of isomers) [Example 213, 8-(2-chloro-3-(1-((3-chloro-6-methoxy-5-(((((S)-5-oxopyrrolidin-2-yl)methyl)amino)methyl)pyridin-2-yl)methyl)-2,3-dihydro-1H-inden-4-yl)phenyl)-3-(((((S)-5-oxopyrrolidin-2-yl)methyl)amino)methyl)-4H-pyrido[1,2-a]pyrimidin-4-one] yielded an IC50 of 3700 nM. `COC(=O)C1CN=C(c2cnc3cc(-c4cccc(-c5cccc(-c6ccc(CNC[C@@H]7CCC(=O)N7)c(OC)n6)c5Cl)c4Cl)ccn3c2=O)N1` (stereo partly drawn) [Example 171, Methyl 2-(8-(2,2′-dichloro-3′-(6-methoxy-5-(((((S)-5-oxopyrrolidin-2-yl)methyl)amino)methyl)pyridin-2-yl)-[1,1′-biphenyl]-3-yl)-4-oxo-4H-pyrido[1,2-a]pyrimidin-3-yl)-4,5-dihydro-1H-imidazole-5-carboxylate] gave an IC50 of 0.2 nM. Compound `COc1nc(-c2cccc(-c3cccc(-c4ccn5c(=O)c(CNC6CC7(CCNC7=O)C6)cnc5c4)c3Cl)c2Cl)ccc1CNC[C@@H]1CCC(=O)N1` (single isomer, unassigned) [Example 251] has an IC50 of 8.9 nM. `Cc1c(-c2ccn3c(=O)c(CNC[C@@H]4CCC(=O)N4)cnc3c2)cccc1-c1cccc(-c2ccc3c(n2)N(C)CCC3NC[C@@H]2CCC(=O)N2)c1Cl` (mixture of isomers) [Example 68, 8-(2′-Chloro-2-methyl-3′-(8-methyl-5-((((S)-5-oxopyrrolidin-2-yl)methyl)amino)-5,6,7,8-tetrahydro-1,8-naphthyridin-2-yl)-[1,1′-biphenyl]-3-yl)-3-(((((S)-5-oxopyrrolidin-2-yl)methyl)amino)methyl)-4H-pyrido[1,2-a]pyrimidin-4-one] showed an IC50 of 11 nM. With `COc1nc(-c2cccc(-c3cccc(-c4ccc5nc(CN6CC(C)(O)C6)cc(=O)n5c4)c3Cl)c2Cl)ccc1CNC[C@@H]1CCC(=O)N1` [Example 222, (S)-7-(2,2′-dichloro-3′-(6-methoxy-5-((((5-oxopyrrolidin-2-yl)methyl)amino)methyl)pyridin-2-yl)-[1,1′-biphenyl]-3-yl)-2-((3-hydroxy-3-methylazetidin-1-yl)methyl)-4H-pyrido[1,2-a]pyrimidin-4-one] the IC50 was 0.2 nM. `COc1cc(-c2cccc(-c3cccc(-c4ccc(CNC[C@@H]5CCC(=O)N5)c(OC)n4)c3Cl)c2Cl)cc2c1CN(CCC(C)(C)O)CC2` [Example 485, (S)-5-((((6-(2,2′-Dichloro-3′-(2-(3-hydroxy-3-methylbutyl)-8-methoxy-1,2,3,4-tetrahydroisoquinolin-6-yl)-[1,1′-biphenyl]-3-yl)-2-methoxypyridin-3-yl)methyl)amino)methyl)pyrrolidin-2-one] showed an IC50 of 0.1 nM. `COc1nc(-c2cccc(-c3cccc(-c4cc5c(=O)n(C)c(CNCCO)nn5c4)c3Cl)c2Cl)cc(Cl)c1CNC[C@@H]1CCC(=O)N1` [Example 491, (S)-6-(2,2′-Dichloro-3′-(4-chloro-6-methoxy-5-((((5-oxopyrrolidin-2-yl)methyl)amino)methyl)pyridin-2-yl)-[1,1′-biphenyl]-3-yl)-2-(((2-hydroxyethyl)amino)methyl)-3-methylpyrrolo[2,1-f][1,2,4]triazin-4(3H)-one] was tested, and the IC50 was 0.7 nM.
